Data taken from PMC8293625, “HLA class-I-peptide stability mediates CD8^+ T cell immunodominance hierarchies and facilitates HLA-associated immune control of HIV” (Cell Reports, 2021).
Like-named read-outs stand apart in the source and are kept apart here.

System: HLA class-I alleles A*0101, A*0201, A*0301, A*2402, B*0702, B*0801, B*1402, B*1501, B*2705, B*3501, B*3901, B*4001, B*4402, B*5201, B*5701, B*5801, B*8101 …
Assay type: cell-based, human
Details: relative anti-HLA MFI; for Relative HLA MFI (10 uM): peptide 10 uM; for Relative HLA MFI (100 uM): peptide 100 uM
[1] = HLA B*40 mono-allelic TAP-deficient 721.221 cells
[2] = HLA A*24 mono-allelic TAP-deficient 721.221 cells
[3] = HLA A*02 mono-allelic TAP-deficient 721.221 cells
[4] = HLA B*15 mono-allelic TAP-deficient 721.221 cells
[5] = HLA B*44 mono-allelic TAP-deficient 721.221 cells
[6] = HLA B*35 mono-allelic TAP-deficient 721.221 cells
[7] = section B*58, TAP-deficient mono-allelic 721.221 cells
[8] = HLA B*52 mono-allelic TAP-deficient 721.221 cells
[9] = HLA A*01 mono-allelic TAP-deficient 721.221 cells
[10] = HLA B*27 mono-allelic TAP-deficient 721.221 cells
[11] = HLA B*14 mono-allelic TAP-deficient 721.221 cells
[12] = HLA B*08 mono-allelic TAP-deficient 721.221 cells

In the case of LEKHGAITS [LS9], the “Relative HLA MFI (10 uM)” value [1] was 0.02343 and the “Relative HLA MFI (100 uM)” value [1] was 0.1149.

For LFCASDAKAY [LY10], the “Relative HLA MFI (10 uM)” value [2] was 0.02963 and the “Relative HLA MFI (100 uM)” value [2] was 0.03673.

LLNATDIAV [LV9] was tested, and the “Relative HLA MFI (10 uM)” value [3] was 0.276 and the “Relative HLA MFI (100 uM)” value [3] was 0.5729.

With LTFGWCFKLV [LV10] the “Relative HLA MFI (10 uM)” value [3] was 0.05804 and the “Relative HLA MFI (100 uM)” value [3] was 0.3313.

LVGKLNWASQIY [LY12] was tested, and the “Relative HLA MFI (10 uM)” value [4] was 0.2345 and the “Relative HLA MFI (100 uM)” value [4] was 0.

With LVGPTPVNI [LI9] the “Relative HLA MFI (10 uM)” value [3] was 0.2406 and the “Relative HLA MFI (100 uM)” value [3] was 0.4593.

For LYNTVATLY [LY9], the “Relative HLA MFI (10 uM)” value [5] was 0 and the “Relative HLA MFI (100 uM)” value [5] was 0.1768.

In the case of NPPIPVGDQY [NQY10], the “Relative HLA MFI (10 uM)” value [6] was 0.826 and the “Relative HLA MFI (100 uM)” value [6] was 1.

For NSSKVSQNY [NNY9], the “Relative HLA MFI (10 uM)” value [6] was 0.1772 and the “Relative HLA MFI (100 uM)” value [6] was 0.3643.

In the case of PLTFGWCYKL [PL10], the “Relative HLA MFI (10 uM)” value [3] was 0.1122 and the “Relative HLA MFI (100 uM)” value [3] was 0.

In the case of PPIPVGDIY [PY9], the “Relative HLA MFI (10 uM)” value [6] was 0.5376 and the “Relative HLA MFI (100 uM)” value [6] was 0.4339.

In the case of QELKNSAVSL [QL10], the “Relative HLA MFI (10 uM)” value [1] was 0.2787 and the “Relative HLA MFI (100 uM)” value [1] was 0.6638.

QTRVLAIERYL [QL11] was tested, and the “Relative HLA MFI (10 uM)” value [7] was 0.2179 and the “Relative HLA MFI (100 uM)” value [7] was 0.3514.

For RILQQLLFI [RI9], the “Relative HLA MFI (10 uM)” value [3] was 0.2027 and the “Relative HLA MFI (100 uM)” value [3] was 0.4852.

For RIRQGLERA [RA9], the “Relative HLA MFI (10 uM)” value [3] was 0.08278, the “Relative HLA MFI (100 uM)” value [3] was 0.3743 and the “Relative HLA MFI (10 uM)” value [4] was 0.6385. For the same sequence, the “Relative HLA MFI (100 uM)” value [4] was 0.7015.

For RMYSPTSI [RI8], the “Relative HLA MFI (10 uM)” value [8] was 0.6683 and the “Relative HLA MFI (100 uM)” value [8] was 1.

With RRGWEVLKY [RY9] the “Relative HLA MFI (10 uM)” value [9] was 0, the “Relative HLA MFI (100 uM)” value [9] was 0.009443 and the “Relative HLA MFI (10 uM)” value [4] was 0.3667. The “Relative HLA MFI (100 uM)” value [4] was 0.5754.

RYPLTFGW [RW8] was tested, and the “Relative HLA MFI (10 uM)” value [2] was 0.9172 and the “Relative HLA MFI (100 uM)” value [2] was 0.9742.

In the case of SLLNATAIAV [SAV10], the “Relative HLA MFI (10 uM)” value [3] was 0.3513 and the “Relative HLA MFI (100 uM)” value [3] was 0.6044.

For TAVPWNASW [TW9], the “Relative HLA MFI (10 uM)” value [6] was 0.4789 and the “Relative HLA MFI (100 uM)” value [6] was 0.6125.

In the case of TERQANFL [TL8], the “Relative HLA MFI (10 uM)” value [1] was 0.2672 and the “Relative HLA MFI (100 uM)” value [1] was 0.5683.

For TQGYFPDWQNY [TY11], the “Relative HLA MFI (10 uM)” value [4] was 0.7367 and the “Relative HLA MFI (100 uM)” value [4] was 1.

In the case of TSTVEEQIQW [TQW10], the “Relative HLA MFI (10 uM)” value [7] was 0.4572 and the “Relative HLA MFI (100 uM)” value [7] was 0.9093.

TVLDVGDAY [TY9] was tested, and the “Relative HLA MFI (10 uM)” value [6] was 0.5668 and the “Relative HLA MFI (100 uM)” value [6] was 0.7722.

VIYQYMDDL [VL9] was tested, and the “Relative HLA MFI (10 uM)” value [3] was 0.03377, the “Relative HLA MFI (100 uM)” value [3] was 0.4231 and the “Relative HLA MFI (10 uM)” value [2] was 0.347. For the same sequence, the “Relative HLA MFI (100 uM)” value [2] was 0.8132, the “Relative HLA MFI (10 uM)” value [10] was 0.653 and the “Relative HLA MFI (100 uM)” value [10] was 0.7425.

With VKVIEEKAF [VF9] the “Relative HLA MFI (10 uM)” value [4] was 0.2223 and the “Relative HLA MFI (100 uM)” value [4] was 0.4298.

For VLAEAMSQV [VV9], the “Relative HLA MFI (10 uM)” value [3] was 0.4244 and the “Relative HLA MFI (100 uM)” value [3] was 0.794.

With VLEWRFDSRL [VL10] the “Relative HLA MFI (10 uM)” value [3] was 0.04901 and the “Relative HLA MFI (100 uM)” value [3] was 0.4134.

In the case of VPLDEDFRKY [VY10], the “Relative HLA MFI (10 uM)” value [6] was 0.6747 and the “Relative HLA MFI (100 uM)” value [6] was 0.7772.

With VPVWKEATTTL [VL11] the “Relative HLA MFI (10 uM)” value [6] was 0.5193 and the “Relative HLA MFI (100 uM)” value [6] was 0.6924.

For VRMYSPTSI [VI9], the “Relative HLA MFI (10 uM)” value [11] was 0.1203 and the “Relative HLA MFI (100 uM)” value [11] was 0.

In the case of VTDSQYALGI [VI10], the “Relative HLA MFI (10 uM)” value [4] was 0.2539 and the “Relative HLA MFI (100 uM)” value [4] was 0.3145.

For WPTVRERM [WM8], the “Relative HLA MFI (10 uM)” value [12] was 0.08175 and the “Relative HLA MFI (100 uM)” value [12] was 0.02576.

WRFDSRLAF [WF9] was tested, and the “Relative HLA MFI (10 uM)” value [6] was 0.3891 and the “Relative HLA MFI (100 uM)” value [6] was 0.3599.

In the case of WRFDSRLAFH [WH10], the “Relative HLA MFI (10 uM)” value [9] was 0.02411 and the “Relative HLA MFI (100 uM)” value [9] was 0.1796.
